Consider two compounds from ChEMBL document CHEMBL3856265, “Conditional changes enhanced production of bioactive metabolites of marine derived fungus Eurotium rubrum” (Bioorg Med Chem Lett, 2016).

One may read the IC50 as the midpoint of a concentration-inhibition curve.

The assay in a line: Inhibition of melanogenesis in theophylline-stimulated mouse B16-4A5 cells assessed as reduction in melanin level incubated for 72 hrs. The assay is classed as functional, cell-based. As to conditions: B16-4A5, 72 h.

Turning to `OC[C@H]1O[C@H](Oc2ccc(O)cc2)[C@H](O)[C@@H](O)[C@@H]1O`, the IC50 is 611 µM.

Regarding `C=CC(C)(C)c1[nH]c2c(CC=C(C)C)cc(CC=C(C)C)cc2c1C[C@@H]1NC(=O)[C@H](C)NC1=O` [ECHINULIN], the IC50 is 68 µM.
